Among the data in PubChem BioAssay (NCI) are GI50 and TGI values, retold here.

The structures appear in SMILES notation.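 All cell lines were grown in 96-well plates and treated with compound for 48 hours. GI50 marks 50% less growth. TGI: total growth inhibition.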

One may read the GI50 as the concentration giving 50% growth inhibition. What is called TGI is the concentration giving total growth inhibition.

Test systems include NCI-H23 lung; M14 melanoma; SK-OV-3 ovarian; HS 578T breast; CAKI-1 renal; KM12 colon; SF-268 CNS; UACC-62 melanoma; NCI-H522 lung; DU-145 prostate.
What all share (assay): DTP human tumour cell line panel, 48 h

In the case of `COc1ccc(O)c(C(=O)c2ccc(C(=O)O[C@@H]3CCCNC[C@H]3NC(=O)c3ccncc3)cc2)c1F`, the GI50 in the assay with NCI-H23 lung was 1.91 µM; in the assay with M14 melanoma, 1.2 µM; with SK-OV-3 ovarian it was 0.946 µM; with HS 578T breast it was 0.174 µM; in the assay with CAKI-1 renal, 0.543 µM; with KM12 colon, 0.8 µM. Further, the GI50 is 0.753 µM in the assay with SF-268 CNS, 1.51 µM in the assay on UACC-62 melanoma, 1.74 µM in the assay with NCI-H522 lung and 1.47 µM with DU-145 prostate. In addition, the concentration for total growth inhibition (TGI) in the assay on NCI-H23 lung, in the assay with M14 melanoma, in the assay on SK-OV-3 ovarian, in the assay on HS 578T breast, in the assay with CAKI-1 renal and with KM12 colon was > 25 µM each time. In addition, the total growth inhibition concentration (TGI) is > 25 µM with SF-268 CNS, > 25 µM in the assay on UACC-62 melanoma, > 13 µM in the assay on NCI-H522 lung and > 25 µM in the assay on DU-145 prostate.

On to `O=C1c2ccccc2C(=O)N1c1ccc(S(=O)(=O)Nc2ncccn2)cc1`, for which the GI50 in the assay with NCI-H23 lung, with M14 melanoma, in the assay with SK-OV-3 ovarian, in the assay on HS 578T breast, in the assay with CAKI-1 renal and with KM12 colon was > 100 µM in each case. For the same molecule, the GI50 in the assay on SF-268 CNS, with UACC-62 melanoma, with NCI-H522 lung and with DU-145 prostate was > 100 µM in each case. Also, the total growth inhibition concentration (TGI) in the assay on NCI-H23 lung, in the assay with M14 melanoma, in the assay with SK-OV-3 ovarian, in the assay on HS 578T breast, with CAKI-1 renal and in the assay with KM12 colon was > 100 µM each time. The TGI in the assay on SF-268 CNS, with UACC-62 melanoma, in the assay on NCI-H522 lung and in the assay with DU-145 prostate was > 100 µM in each case.

`COc1ccc2[nH]cc(-c3nc(-c4cn(C)c5ccncc45)cs3)c2c1`: the GI50 in the assay with NCI-H23 lung was 2.12 µM; with M14 melanoma it was 1.75 µM; in the assay with SK-OV-3 ovarian, 19.4 µM; in the assay on HS 578T breast, 14.7 µM; in the assay on CAKI-1 renal, 1.84 µM; with KM12 colon it was 1.87 µM. Besides, the GI50 in the assay on SF-268 CNS was 1.91 µM; with UACC-62 melanoma it was 18.5 µM; with NCI-H522 lung, 1.74 µM; in the assay on DU-145 prostate it was 1.7 µM. Also, the TGI is 4.12 µM in the assay with NCI-H23 lung; 3.24 µM in the assay with M14 melanoma; 33.7 µM in the assay on SK-OV-3 ovarian; 41.6 µM with HS 578T breast; 3.35 µM in the assay on CAKI-1 renal; 3.52 µM in the assay on KM12 colon. The TGI with SF-268 CNS is 3.61 µM; with UACC-62 melanoma it was 37.5 µM; in the assay with NCI-H522 lung, 3.52 µM; with DU-145 prostate, 3.11 µM.

Turning to `C#C[C@]1(O)CC[C@H]2[C@@H]3CC=C4c5sc(N=C(N)N)nc5CC[C@]4(C)[C@H]3CC[C@@]21C`, the GI50 with NCI-H23 lung was 1.26 µM; in the assay with M14 melanoma it was 0.497 µM; with SK-OV-3 ovarian, 1.05 µM; in the assay on HS 578T breast it was 0.243 µM; in the assay with CAKI-1 renal it was 0.615 µM; in the assay with KM12 colon, 1.1 µM. For the same molecule, the GI50 in the assay on SF-268 CNS was 0.959 µM; in the assay with UACC-62 melanoma, 0.248 µM; with NCI-H522 lung, 1.63 µM; with DU-145 prostate, 1.19 µM. The TGI turned out to be 2.92 µM in the assay with NCI-H23 lung; 1.56 µM with M14 melanoma; 2.33 µM in the assay on SK-OV-3 ovarian; 1.11 µM in the assay with HS 578T breast; 1.82 µM with CAKI-1 renal; 2.55 µM in the assay on KM12 colon. In addition, the concentration for total growth inhibition (TGI) in the assay on SF-268 CNS stood at 2.75 µM; with UACC-62 melanoma, 0.657 µM; in the assay on NCI-H522 lung, 3.67 µM; with DU-145 prostate it was 2.67 µM.

On to `COc1cc(-c2[nH]ccc2Cl)oc1C1=C2N=C3C=C2C(C(C)C)C1CCCCCCCC3` (stereo not given), for which the TGI turned out to be 2.05 µM with NCI-H23 lung; 1.51 µM in the assay with M14 melanoma; 3.77 µM in the assay on SK-OV-3 ovarian; 1.41 µM in the assay with HS 578T breast; 5.27 µM in the assay with CAKI-1 renal; 2.83 µM with KM12 colon. Also, the TGI in the assay with SF-268 CNS worked out at 4.1 µM; in the assay on UACC-62 melanoma, 1.91 µM; in the assay on NCI-H522 lung, 1.58 µM; with DU-145 prostate it was 1.85 µM.

With `CCC(Sc1nnc2c3ccccc3n(CC)c2n1)C(=O)Nc1ccccc1OC` (stereo not given), the GI50 in the assay with NCI-H23 lung is 3.41 µM; in the assay with M14 melanoma it was > 100 µM; in the assay on SK-OV-3 ovarian, > 100 µM; in the assay with HS 578T breast, > 100 µM; with CAKI-1 renal, 0.76 µM; in the assay with KM12 colon, 91.3 µM. In addition, the GI50 with SF-268 CNS, in the assay with UACC-62 melanoma, with NCI-H522 lung and in the assay with DU-145 prostate was > 100 µM in each case. Also, the TGI is > 100 µM with NCI-H23 lung; > 100 µM in the assay with M14 melanoma; > 100 µM with SK-OV-3 ovarian; > 100 µM in the assay with HS 578T breast; 5.32 µM in the assay on CAKI-1 renal; > 100 µM in the assay on KM12 colon. The TGI with SF-268 CNS, in the assay on UACC-62 melanoma, with NCI-H522 lung and with DU-145 prostate was > 100 µM in each case.

For `O=C(Nc1ccc(Br)cc1)Nc1n[nH]c2ccccc12`, the GI50 in the assay with NCI-H23 lung is > 100 µM; with M14 melanoma, > 100 µM; in the assay with SK-OV-3 ovarian, > 33.7 µM; in the assay on HS 578T breast, 46.8 µM; in the assay on CAKI-1 renal, > 100 µM; in the assay on KM12 colon, > 76.4 µM. In addition, the GI50 in the assay with SF-268 CNS was > 46 µM; with UACC-62 melanoma, > 100 µM; with NCI-H522 lung it was 55 µM; with DU-145 prostate it was > 60.2 µM. For the same molecule, the TGI with NCI-H23 lung, in the assay with M14 melanoma, with SK-OV-3 ovarian, in the assay on HS 578T breast, in the assay on CAKI-1 renal and in the assay on KM12 colon was > 100 µM throughout. Moreover, the TGI in the assay on SF-268 CNS, with UACC-62 melanoma, with NCI-H522 lung and in the assay on DU-145 prostate was > 100 µM throughout.
